Data on one molecule can be found in patent US20090215884A1, “METHOD FOR WOUND HEALING” (priority 2005, published 2009).

Structures are written as SMILES.

Data set [1] can be described thus: Storage stability of PEP005 preparations. It counts as physicochemical. The note with it: stored at 4° C. As for the experimental part:
PEP005 was supplied by Peplin Limited, Brisbane, Australia, in 20 mg batches and stored at 4° C. When required, the PEP005 was solubilized in dimethyl sulphoxide (DMSO, >99.9%, Sigma Chemical Co., Dorset, U.K.), at a concentration of 10 mg/ml.
PEP005 was supplied by Peplin Limited, Brisbane, Australia as 0.01% (100 μg/ml), 0.028% (280 μg/ml) and 0.05% (500 μg/ml) preparations in a DMSO/isopropanol-based gel. PEP005-free, DMSO/isopropanol-based carrier gel was also supplied to serve as a vehicle control.

Data set [2] has as its system dermal fibroblasts. The data set is described as follows: Fibroblast populated collagen lattice (FPCL) reorganization/contraction. It is filed as cell-based, human. The note with it: 0.1 μg/ml PEP005. An excerpt:
A normal adult skin biopsy (6 mm) was obtained (n=1), with informed consent, from an individual attending the Oral Surgery Clinic, School of Dentistry, Wales College of Medicine, Cardiff. Following the application of a local anaesthetic, the dermal biopsy was collected and adult dermal fibroblast cultures established by single cell suspension technique, following enzymic degradation of the specimen. This technique has previously been reliably used to establish viable primary cultures of both oral and dermal fibroblasts in vitro (Cook et al, 2000; Stephens et al, 2001; 2003). […]
The ability of dermal fibroblasts to remodel/reorganize their ECM environment in the presence of PEP005 was examined by fibroblast populated collagen lattices (FPCLs), according to Cook et al (2000). […] The degree of ECM reorganization/lattice contraction was quantified from three separate lattice diameter measurements performed on each of the three replicate samples, at days 1, 2, 3, 4, 5, 6, 7, 10 and 14, after initial fabrication. […]
Each experiment was performed on two separate occasions, with the % reductions in lattice contraction and the MMP densitometric values obtained being expressed as an average for each group of samples

Data set [3] relates to fibroblasts. Nature of the data set: Cytokine production by PEP005-treated human fibroblasts. It is filed as cell-based. Particulars: 6 h, supernatant. On the procedure:
Cytokine production by PEP005-treated human cells Confluent cultures of Me10538 cells, keratinocytes, fibroblasts and neutrophils were incubated for 6 h in the absence or presence of PEP005 (1-100 ng/ml). The supernatants were harvested and analyzed for the presence of the following cytokines; TNF-α, IL-6 and IL-8 using a multiplex detection kit (Biosource International, Nivelles, Belgium). Units of detected proteins are pg/ml.

For `C/C=C(/C)C(=O)O[C@H]1C(C)=C[C@]23C(=O)[C@@H](C=C(CO)[C@@H](O)[C@]12O)[C@H]1[C@@H](C[C@H]3C)C1(C)C` [PEP005, ingenol-3-angelate], in data set [1] (0.01%, 0.028% and 0.05% preparations in DMSO/isopropanol-based gel), the “stability of PEP005 gels” value is “stable for several months”. For the same molecule, the “stability of PEP005/DMSO stock solution” value in data set [1] (10 mg/ml in DMSO) is reported as “stable for several months”. In data set [2], the “Type I collagen lattice contraction” value is recorded as “significantly increased”. For the same molecule, the IL-6 in data set [3] (PEP005 1 ng/ml) was 81 ± 4 pg/mL; in data set [3] (PEP005 5 ng/ml), 85 ± 4 pg/mL; in data set [3] (PEP005 10 ng/ml), 141 ± 6 pg/mL; in data set [3] (PEP005 100 ng/ml), 205 ± 5 pg/mL. Moreover, the IL-8 in data set [3] (PEP005 1 ng/ml) came out at 79 ± 3 pg/mL; in data set [3] (PEP005 5 ng/ml), 160 ± 14 pg/mL; in data set [3] (PEP005 10 ng/ml), 215 ± 12 pg/mL; in data set [3] (PEP005 100 ng/ml), 239 ± 9 pg/mL.
